RP-LC retention time data for 79 molecules are collected here from the METLIN SMRT retention time set (Domingo-Almenara et al. 2019).

Each structure is given as a SMILES string.

The series is described as follows: gradient 5% acetonitrile 3 min, to 50% in 2 min, to 85% in 15 min, held 3 min, 100 µL/min. The settings on record: column: Zorbax Extend-C18 2.1 x 50 mm; eluents: water / acetonitrile, 0.1% formic acid. A digest of the protocol: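 Pure standards were run in mixtures of ~100 molecules by HPLC coupled to a quadrupole time-of-flight mass spectrometer. The column was a Zorbax Extend-C18 (2.1 × 50 mm, 1.8 μm) at 100 μL/min, with water and acetonitrile each containing 0.1% formic acid, in positive and negative ionization mode. Dead and dwell volumes were 40 μL and 900 μL. Retention time was taken from computationally picked adduct peaks, each manually inspected, with data collected over 3 months.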
The molecule `COc1ccccc1CNC(=O)CN1C(=O)C2CCCCN2c2ccc(S(=O)(=O)N(C)C)cc21` (centres undefined) gave an RP-LC retention time of 885 s.
`O=C(Nc1ccc(F)cc1)c1c(O)c2cccnc2n(-c2cccc(F)c2)c1=O` returned an RP-LC retention time of 1220 s.
`CCn1cc(CCNC(=O)Nc2ccc(OC)cc2OC)c2cccnc21`: the RP-LC retention time turned out to be 649 s.
To `CCc1ccc(NC(=O)Cn2ncn3c(C)c(C(=O)NCc4ccccc4)c(C)c3c2=O)cc1` belongs 863 s; to `CCCc1nc(-c2cc3cccc(C)c3nc2NCCc2ccc(S(N)(=O)=O)cc2)no1`, 1300 s.
In turn, `CCn1cnc(S(=O)(=O)N2CCC(C(=O)Nc3cccc4ccccc34)CC2)c1` returned an RP-LC retention time of 732 s.
To `CCOC(=O)c1c(N)n(CCCOC)c2nc3ccccc3nc12` belongs 645 s.
To `O=C(NCc1cccs1)c1cc(=O)c(OCc2ccccc2)co1` belongs 727 s; to `COc1ccc(N2C(=O)C3N=NN(Cc4nc(-c5ccc(C)c(C)c5)no4)C3C2=O)cc1` (centres undefined), 1050 s.
To `CC(=O)N1CCc2cc(-c3ccc(C(=O)NCCCN4CCCCC4)cc3)ccc21` belongs 616 s; to `COc1ncc(C(=O)N2CCN(c3ccccc3F)CC2)cn1`, 770 s.
Molecule `COc1ccc(S(=O)(=O)CCC(=O)N2CCCC2c2nc(-c3ccc(Cl)cc3)no2)cc1` (centres undefined) gave an RP-LC retention time of 1000 s.
The figure for `O=C(Cc1cccs1)NC1CCN(c2cc(-c3ccccc3)[nH]n2)C1` (centres undefined) is 673 s; for `CN1c2ccc(Cl)cc2C(=O)NC12CCN(C(=O)c1cccc(F)c1)CC2` it is 808 s.
To `O=C(NCC1CCN(C(=O)Oc2ccccc2)CC1)Nc1ccccc1Cl` belongs 881 s.
The figure for `COCC(C)(O)CNS(=O)(=O)c1ccc(F)cc1C` (centres undefined) is 674 s.
`CCc1cc(=O)n(CC(=O)Nc2ccc(Br)cc2)c(N2CCOCC2)n1` came in with an RP-LC retention time of 829 s.
The figure for `O=C(Cn1nc(N2CCOCC2)c2ccccc2c1=O)Nc1ccccc1F` is 790 s; for `CCSc1nnc(NC(=O)Cc2csc(NC(=O)c3cnccn3)n2)s1` it is 678 s.
To `CCOc1ccc(NS(=O)(=O)c2cc(-c3[nH]ncc3C(=O)N(C)C)oc2C)cc1` belongs 686 s.
To `Cc1ccc(CN2CCN(C3CCN(C(=O)Nc4ccc5c(c4)OCO5)CC3)C(=O)C2=O)cc1` belongs 696 s; to `O=C(NCc1ccco1)c1ccc2c(c1)C(=O)c1ccccc1-2`, 749 s; to `CCC(=O)N1CCc2cc(CNS(=O)(=O)c3ccc(F)cc3)ccc21`, 838 s.
`CCOC(=O)C1=C(CN(CC)CC)N(C)C(=O)NC1c1ccccc1` (centres undefined) came in with an RP-LC retention time of 618 s.
For the molecule `c1cc(-c2noc(-c3ccsc3)n2)cc(N2CCCC2)n1`, the RP-LC retention time came to 664 s.
To `COc1cccc(-n2c(=O)c(C(=O)Nc3ccc(Cl)cc3)c(O)c3cccnc32)c1` belongs 1340 s; to `CN1CCN(CCNC(=O)C2CCCN(c3nc4ccccc4n(Cc4ccccc4)c3=O)C2)CC1` (centres undefined), 662 s; to `CCOc1ccc(S(=O)(=O)N2CCC(c3noc(-c4ccc(C)cc4)n3)CC2)cc1`, 1240 s.
The figure for `CC(=O)N(Cc1nn(C)c2c1CN(S(=O)(=O)Cc1ccccc1Cl)CC2)c1ccccc1` is 835 s; for `CCC(=O)Nc1ccc(OCc2cc(C(=O)NC3CCC(C)CC3)no2)cc1` (centres undefined) it is 601 s; for `CCN(Cc1ccccc1)c1ccc(-c2noc(CN3CCOCC3)n2)cn1` it is 826 s.
To `O=C(Nc1cccn2c(C3CCC3)nnc12)c1cnccn1` belongs 692 s; to `Cc1oc(-c2ccc(C(=O)N3CCN(C)CC3)cc2)nc1CN1CCc2ccccc21`, 675 s; to `COCCNC(=O)c1ccc2c(c1)N(Cc1ccc(C)cc1)C(=O)CO2`, 748 s.
`O=C(Nc1ccc2ncnc(N3CCCC3)c2c1)C1CCC1` showed an RP-LC retention time of 628 s.
As to `Cc1noc(C)c1-c1ccc(S(=O)(=O)Nc2ccc(Cl)cc2)cc1`, the RP-LC retention time came out at 1000 s.
Consider `CC1CN(C2CCCCC2)c2nc3c(c(=O)n(CCCO)c(=O)n3C)n2C1` (centres undefined), for which the RP-LC retention time turned out to be 803 s.
To `CCn1cnc(S(=O)(=O)N2CCC(C(=O)Nc3cc(OC)ccc3OC)CC2)c1` belongs 728 s; to `Cc1ccc(-c2nc(Cn3ccn4nc(-c5ccc(F)cc5)cc4c3=O)c(C)o2)cc1`, 1220 s; to `COc1cc(OC)cc(-c2nc(C3CC(=O)N(c4ccc(OC)c(OC)c4)C3)no2)c1` (centres undefined), 877 s.
The figure for `Cc1cc(N2CCN(C(=O)c3nccc4ccccc34)CC2)nc2nnc(C)n12` is 592 s.
To `COc1ccc(C2C(C(=O)NCCC(C)C)c3cc(OC)c(OC)cc3C(=O)N2C)cc1` (centres undefined) belongs 804 s.
The molecule `COc1ccc(-c2nc3ncccn3c2Nc2cccc(Cl)c2C)cc1` gave an RP-LC retention time of 845 s.
In the case of `N#Cc1ccc(C(=O)Nc2cnn(-c3ncc(N4CCCC4)cn3)c2)cc1`, the RP-LC retention time amounted to 798 s.
The figure for `CCc1nnc(-c2cc(C)n(CC(=O)Nc3cc(OC)cc(OC)c3)c2C)o1` is 807 s.
In turn, `O=C(Nc1ccccc1F)N1CCCC1c1nc(-c2ccccc2)no1` (centres undefined) gave an RP-LC retention time of 940 s.
`COc1ccc(Cl)cc1NC(=O)CSc1ccc2nnc(-c3cccs3)n2n1` came in with an RP-LC retention time of 766 s.
To `CCN1c2ccc(Cl)cc2C(=O)NC12CCN(C(=O)NCc1ccccc1)CC2` belongs 837 s.
Turning to `COc1ccc(-c2noc(Cn3c(=O)n(C(C)C)c(=O)c4ccccc43)n2)cc1OC`, the RP-LC retention time was found to be 1000 s.
To `COCc1nc(CCNC(=O)C2CCC2)no1` belongs 609 s; to `CCNC(=O)NCCc1cn(CCOC)c2ncccc12`, 579 s; to `COc1ccc(-c2nc(NC3CCCCC3)c3ccccc3n2)cc1`, 856 s.
The figure for `O=C1CCCCC(C(=O)N2CCc3ccccc32)N1` (centres undefined) is 726 s; for `CCc1nc(-c2ccc(C(=O)N3CCN(c4ncccn4)CC3)cc2)cs1` it is 843 s; for `Cc1c(C(=O)N2CCOCC2)cnn1-c1ccc(-c2nc(C3CC3)no2)cn1` it is 778 s.
On to `CC1=C(c2ccc(C)cc2)S(=O)(=O)N=C1N1CCCC1`, for which the RP-LC retention time worked out at 816 s.
Take `Cc1ccc(C)c(NC(=O)C2(C)Oc3cccnc3N(C)C2=O)c1` (centres undefined): the RP-LC retention time was determined as 836 s.
The figure for `COc1cccc(NC(=O)Nc2ccc3c(c2)CCN3S(=O)(=O)c2ccccc2)c1` is 933 s; for `C=CCNC(=O)C1CCCN(c2ncnc3c2oc2ccccc23)C1` (centres undefined) it is 674 s; for `Cc1noc([C@@H]2CN(C(=O)c3ccc(Cc4c(C)noc4C)o3)C[C@H]2C(N)=O)n1` it is 631 s.
To `O=C(CN1C(=O)NC2(CCCCC2)C1=O)Nc1cc(F)ccc1F` belongs 779 s.
The figure for `O=C(c1ccccc1Cl)N1CCC(COCc2ccccc2)CC1` is 979 s; for `Cn1cc(-c2ccc3c(c2)CCN3C(=O)Cc2cccc(C(F)(F)F)c2)c2c(N)ncnc21` it is 867 s; for `O=C(Nc1ccc(N2CCOCC2)cc1)C1CCCN(c2nnc3ccccn23)C1` (centres undefined) it is 600 s.
`O=C1CCc2cc(S(=O)(=O)Nc3ccc(F)c(Cl)c3)cc3c2N1CCC3` gave an RP-LC retention time of 812 s.
The figure for `Cc1ccc(CNC(=O)N2CCCC(C)(C(=O)NCc3ccc(C)cc3)C2)cc1` (centres undefined) is 947 s; for `CCN1CCn2cc(S(=O)(=O)Nc3ccc(F)c(F)c3)cc2C1=O` it is 727 s.
The figure for `Cc1ccc(CS(=O)(=O)N2CCC(n3c(-c4ccco4)nc4cccnc43)C2)cc1C` (centres undefined) is 995 s.
To `O=C(Cn1nc(N2CCSCC2)c2ccccc2c1=O)Nc1ccccc1C(F)(F)F` belongs 979 s.
Turning to `CCOc1ccccc1NC(=O)N1CCN(c2ccc(=O)n(-c3ccc(F)cc3)n2)CC1`, the RP-LC retention time stood at 875 s.
`CCOC(=O)C(C)Sc1ccc(NC(=O)c2ccco2)nn1` (centres undefined) gave an RP-LC retention time of 759 s.
The figure for `CCc1ccc(C2=C(C)C(N3CCCN(C(=O)NC(C)(C)C)CC3)=NS2(=O)=O)cc1` is 928 s.
To `CCC(C)(C)NC(=O)Cn1nc(C)c2nn(-c3ccccc3)c(C)c2c1=O` belongs 860 s; to `Cc1ccc(NC(=O)Cc2csc3nc(-c4ccccc4)cn23)c(Br)c1`, 872 s; to `COC1CC2C=C(C)/C=C/C=C/C(=O)NC(c3ccccc3)C/C=C/CCC(O)CC(=O)C2=C1O` (centres undefined), 977 s.
To `O=C(CSc1ncnc2ccccc12)NCc1ccccc1` belongs 708 s; to `CN1C(=O)c2cccn2CC1C(=O)NCc1cccs1` (centres undefined), 654 s.
As to `COc1ccc(CC(=O)N2CCCC2c2cc(C(C)C)on2)cc1OC` (centres undefined), the RP-LC retention time turned out to be 800 s.
To `Cc1nnc(N2CCCC(C(=O)NCCCN3CCCC3)C2)c2nn(-c3ccccc3)c(C)c12` (centres undefined) belongs 558 s.
